# Measured values from US20090179638A1, “ASSAY FOR IDENTIFYING INHIBITORS OF NEURONAL APOPTOTIC PATHWAYS” (AEGERA THERAPEUTICS INC., priority 2006, published 2009).
# What was measured:
# [1] = tested on: PC12 cells; assay: PC12 cell death induced by chemotherapeutic drugs (LDH assay); type: cell-based
# Method: FIG. 3 is a graph showing that compound 1 inhibits JNK-dependent cell death induced by chemotherapeutic drugs. Cells were infected with AdNRG at 5 MOI or treated with paclitaxel, cisplatin, or doxorubicin (Dox) at the indicated μM concentrations. At the time of treatment, compound 1 or vehicle was added to the cultures, as indicated. After 40 hours, cells were assayed for death using the LDH assay. Results are normalized relative to those obtained with 1% Triton (Tx), and represent the mean±standard deviation of a representative experiment performed in triplicate (*=P<0.01 relative to 0 μM compound 1 for each insult). Experiments were performed twice with identical results.
# The ability of compound 1 to inhibit apoptosis in response to a variety of other insults, including the DNA damaging agent, cisplatin, the microtubule disruptor, paclitaxel, and doxorubicin, a topoisomerase inhibitor was investigated. […] Cisplatin-induced apoptosis has been reported to be JNK-dependent when used at low concentrations (10 μM), but JNK-independent at concentrations >25 μM (Sanchez-Perez and Perona, 1999) and consistent with this, compound 1 protected cells exposed to 10 μM, but not 50 μM, cisplatin (FIG. 3).
# Cell culture, infection, transfection and immunoblotting. Sympathetic neurons were maintained and deprived of NGF as previously described (Bamji et al., 1998; Ma et al., 1992). PC12^rtTA cells were maintained and infected as previously described (Majdan et al., 1997; Salehi et al., 2002); for NRAGE, […] doxycycline was added to all plates at time of infection. Wildtype and HSF1 nullizygous immortalized mouse embryonic fibroblasts (MEFs) were maintained in DMEM containing 10% fetal calf serum, 1 μM β-mercaptoethanol, 1% non-essential amino acids, 1% L-glutamine, 1% antimycotic solution and 1% sodium pyruvate (all from GibcoBRL). Sympathetic neuron survival was assessed using the MTS assay according to the manufacturer's instructions (Promega). Analysis of PC12 cell death was determined using a lactate dehydrogenase (LDH) assay (Roche) as per the manufacturer's instructions. Transfections using plasmids or RNAi were performed using Lipofectamine 2000. Immunoblotting was performed as previously described (Majdan et al., 1997; Salehi et al., 2002).
# [2] = tested on: HSP70; assay: HSP70 levels in SCG neurons (immunoblot); type: cell-based; conditions: 18 hours
# Method: To address this, SCG neurons were treated with compound 1 for 18 hours then lysed and assessed for HSP70 levels by immunoblot. Uninfected PC12rtTA cells were treated in a similar manner. […] To test if the accumulation of HSP70 induced by compound 1 reflected increased steady state levels of its mRNA, RNA was isolated from PC12 cells treated with increasing concentrations of compound 1 for 18 hours and the cell lysates subjected to semi-quantitative rtPCR. […] HSP protein levels were also assessed in PC12rtTA cells infected with AdLacZ, Adp75, or AdNRG, and at the same time, exposed to compound 1.
# [3] = tested on: HSP70, HSP25, HSP90 mRNA; assay: semi-quantitative rtPCR of HSP mRNA in PC12 cells; type: cell-based, rat; conditions: 18 hours
# Method: FIGS. 4A-4C are photographs of Western blots which illustrate that compound 1 treatment of PC12 cells induces expression of HSP70. A: PC12 cells were infected with 5 MOI of AdNRG (NRG) or AdLacZ (LacZ) as indicated. Cells were left untreated (0) or treated with 40 μM compound 1 at time of infection (30), one hour before lysis (1), or at both times (30+1). Cells were lysed thirty hours after infection, normalized for protein content, and analyzed for levels of phospho-Ser^63 c-Jun and total c-Jun, total JNK, IkBα, and NRAGE by immunoblotting. Lysates from untreated cells are indicated by ‘−’. B: PC12 cells were treated with the indicated concentrations of compound 1 for 18 hours and then lysed, normalized for protein content, and analyzed for levels of HSP70 by immunoblotting. Lysates from untreated cells are indicated by ‘−’. C: RNA isolated from PC12^rtTA cells treated with increasing concentrations of compound 1 for 18 hours was analyzed by rtPCR using primers specific to HSP70, HSP25, HSP90 or actin, as indicated. […] Thirty hours after infection, cells were lysed, normalized for protein content, and analyzed for levels of c-Jun phosphorylation, HSP70, HSP25, HSP40, NRAGE, p75NTR, JNK-1 and IkBα, as indicated.
# To address this, SCG neurons were treated with compound 1 for 18 hours then lysed and assessed for HSP70 levels by immunoblot. […]
# [4] = tested on: Akt; assay: Akt levels in PC12 cells (immunoblot); type: cell-based; conditions: 16 hours
# [5] = tested on: HSP70 and HSP25; assay: Endogenous HSP protein expression in wild-type or HSF1 null MEFs (immunoblot); type: cell-based, mouse
# Method: FIGS. 5B and 5C are photographs of Western blots showing that compound 1 binds HSP90 and causes HSF1-dependent expression of HSP70 and HSP25. A: Wild-type or HSF1 null MEFs were transfected with pGL3B-HSP70, an HSP70 promoter reporter construct, or parental vector (pGL3B), then treated with 40 μM of compound 1 for 24 hours and analyzed for luciferase content as described in Materials and Methods (*=P<0.005 relative to 0 compound 1; **=P<0.005 relative to wild-type MEFs treated with 40 uM compound 1. B: Wild-type or HSF1 null MEFs were treated with increasing concentrations of compound 1 for 24 hours, cells were lysed, normalized for protein content, and analyzed for levels of HSP70, HSP40, and HSP25 as indicated. C: Compound 6-conjugated Sepharose beads were incubated with purified HSP90 for 2 hours, washed, and levels of bound HSP90 were analyzed by immunoblot. Con=Control beads, Alone=Compound 6-beads alone, Comp=[…]+competing compound 1 (at 80 μM). Experiments in Panel A-C were performed three times with identical results.
# Induction of cell stress results in the interaction of HSP90 with misfolded proteins and disrupts its association with HSF1, allowing it to bind and activate HSP70 and HSP25 promoters (Sanchez-Perez and Perona, 1999). […]
compound,measurement,setting,value
NS(=O)(=O)c1nn2cc(-c3ccccc3)nc2s1 [Compound 1],protection against cisplatin-induced cell death,[1]; cisplatin 10 μM,protected
same,protection against cisplatin-induced cell death,[1]; cisplatin 50 μM,not 50 μM
same,protection against doxorubicin-induced cell death,[1]; doxorubicin,did not offer any protection
same,apoptosis induced by paclitaxel,[1]; paclitaxel 10 μM and 50 μM,effectively reduced
same,cellular HSP70 levels,[2],large increase
same,HSP25 and HSP70 mRNA levels,[3],increased levels
same,HSP90 or actin mRNA levels,[3],no effect
same,phosphorylated Akt (pAkt) levels,[4],significantly enhanced
same,total Akt levels,[4],reduced total Akt only slightly
same,expression of endogenous HSP70 and HSP25,"[5]; MEFs lacking HSF1, 24 hours",not in MEFs lacking HSF1
same,expression of endogenous HSP70 and HSP25,"[5]; wild type MEFs, 24 hours",strong induction
